Results taken from US11058114B2, “Use of n-arylamidine-substituted trifluoroethyl sulphoxide derivatives for controlling pests by watering, droplet application, dip application, soil injection or by treating seed” (BAYER CROPSCIENCE AKTIENGESELLSCHAFT, priority 2014, dated 2021).

What was measured:
[1] = test system: greenhouse red spider mite (Tetranychus urticae), OP-resistant; assay: Tetranychus urticae drench test, OP-resistant (TETRUR DRENCH); assay type: in vivo; conditions: bean plants (Phaseolus vulgaris) in soil pots, 100% = all spider mites killed; for pest or weed control at 0.8 ppm / pest or weed control at 4 ppm / pest or weed control at 0.16 ppm: Tetranychus urticae, in Phaseolus vulgaris, soil, 336 h, 14 d, read-out: % effect after 14 d
Procedure: Tetranychus urticae—Drench Test, OP-Resistant (TETRUR)
(§1) Solvent: 7 parts by weight of dimethylformamide
Emulsifier: 2 parts by weight of alkylaryl polyglycol ether
To produce a suitable active compound preparation, 1 part by weight of active compound was mixed with the specified amounts of solvent and emulsifier, and the concentrate was diluted with water to the desired concentration, with the volume of soil which was drenched being taken into account. It was ensured that a concentration of 40 ppm of emulsifier in the soil was not exceeded. To produce further test concentrations, water was used for dilution.
Bean plants (Phaseolus vulgaris), in soil pots, which were heavily infested by all stages of the greenhouse red spider mite (Tetranychus urticae) were watered with an active compound preparation of the desired concentration.
(§2) After the desired period of time, the efficacy in % was determined. 100% means that all the spider mites have been killed; 0% means that no spider mites have been killed.

[2] = test system: greenhouse red spider mite (Tetranychus urticae), OP-resistant; assay: Tetranychus urticae spray test, OP-resistant (TETRUR SPRAY); assay type: in vivo; conditions: bean plants (Phaseolus vulgaris), 100% = all spider mites killed; for pest or weed control at 0.8 ppm / pest or weed control at 4 ppm / pest or weed control at 0.16 ppm: Tetranychus urticae, 336 h, 14 d, read-out: % effect after 14 d
Procedure: Tetranychus urticae—Spray Test; OP-Resistant (TETRUR)
as §1
Emulsifier: alkylaryl polyglycol ether
To produce a suitable active compound preparation, 1 part by weight of active compound was dissolved using the stated parts by weight of solvent and made up with water containing an emulsifier concentration of 1000 ppm until the desired concentration was attained. To produce further test concentrations, the preparation was diluted with emulsifier-containing water. Ammonium salts and penetrants (rapeseed oil methyl ester) were each added in a concentration of 1000 ppm to the solution of the preparations.
Bean plants (Phaseolus vulgaris) which were heavily infested by all stages of the greenhouse red spider mite (Tetranychus urticae) were sprayed with an active compound preparation of the desired concentration.
as §2

SMILES	pest or weed control at 0.8 ppm [1] [%]	pest or weed control at 4 ppm [1] [%]	pest or weed control at 0.8 ppm [2] [%]	pest or weed control at 4 ppm [2] [%]	% effect after 14 d ([1]; 0.16 ppm) [%]	% effect after 14 d ([2]; 0.16 ppm) [%]	pest or weed control at 0.16 ppm ([1]; 0.16 ppm) [%]	pest or weed control at 0.16 ppm ([2]; 0.16 ppm) [%]
Cc1cc(F)c(/N=C(\N(C)C)C(F)(F)F)cc1[S+]([O-])CC(F)(F)F (centres unmarked) [Ib-01]	100	100	0	98	–	–	–	–
Cc1cc(F)c(/N=C(\N)C(F)(F)F)cc1[S+]([O-])CC(F)(F)F (centres unmarked) [Ib-11]	100	100	50	95	–	–	–	–
N/C(=N/c1cc([S+]([O-])CC(F)(F)F)c(Cl)cc1Cl)C(F)(F)F (centres unmarked) [Ib-14]	–	–	–	–	80	0	–	–
N/C(=N/c1ccc(C(F)(F)F)c([S+]([O-])CC(F)(F)F)c1)C(F)(F)F (centres unmarked) [Ib-16]	100	–	40	–	–	–	99	0
N/C(=N/c1cc([S+]([O-])CC(F)(F)F)c(Cl)cc1Cl)C(F)(F)F (centres unmarked) [Ib-17]	100	–	98	–	–	–	98	0
N/C(=N/c1cc([S+]([O-])CC(F)(F)F)c(Br)cc1Br)C(F)(F)F (centres unmarked) [Ib-18]	99	–	50	–	–	–	99	0
Cc1cc(F)c(/N=C(\N)C2(F)CC2)cc1[S+]([O-])CC(F)(F)F (centres unmarked) [Ib-19]	98	–	30	–	–	–	98	0
CN/C(=N/c1cc([S+]([O-])CC(F)(F)F)c(Cl)cc1Cl)C(F)(F)F (centres unmarked) [Ib-21]	95	–	90	–	–	–	80	0
Cc1cc(F)c(/N=C(\N)C2(Cl)CC2)cc1[S+]([O-])CC(F)(F)F (centres unmarked) [Ib-22]	90	90	0	30	–	–	–	–
CN/C(=N/c1cc([S+]([O-])CC(F)(F)F)c(Br)cc1Br)C(F)(F)F (centres unmarked) [Ib-24]	100	–	30	–	–	–	–	–
CN(C)/C(=N/c1cc([S+]([O-])CC(F)(F)F)c(Br)cc1Br)C(F)(F)F (centres unmarked) [Ib-25]	99	–	50	–	–	–	–	–
CN(C)/C(=N/c1cc([S+]([O-])CC(F)(F)F)c(Cl)cc1Cl)C(F)(F)F (centres unmarked) [Ib-26]	95	–	0	–	–	–	–	–
Cc1cc(F)c(/N=C2\CCCN2CC(F)F)cc1[S+]([O-])CC(F)(F)F (centres unmarked) [Ib-33]	95	–	0	–	–	–	60	0
N/C(=N/c1cc([S+]([O-])CC(F)(F)F)c(Cl)cc1Br)C(F)(F)F (centres unmarked) [Ib-57]	–	–	–	–	–	–	90	0
Cc1cc(F)c(/N=C(\N)c2cnccn2)cc1[S+]([O-])CC(F)(F)F (centres unmarked) [Ib-62]	90	90	0	0	–	–	–	–
N/C(=N/c1cc([S+]([O-])CC(F)(F)F)c(Br)cc1Cl)C(F)(F)F (centres unmarked) [Ib-68]	100	–	80	–	–	–	98	0
Cc1cc(F)c(/N=C2\CCCN2CC(F)(F)F)cc1[S+]([O-])CC(F)(F)F (centres unmarked) [Ib-115]	90	90	0	0	–	–	–	–
Cc1cc(F)c(/N=C2\SCC(=O)N2CC(F)(F)F)cc1[S@+]([O-])CC(F)(F)F [Ib-168]	95	–	30	–	–	–	50	0
